Measured values taken from ChEMBL document CHEMBL3580659, “One-pot multicomponent synthesis of indole incorporated thiazolylcoumarins and their antibacterial, anticancer and DNA cleavage studies” (2015).

How the values were obtained:
Type in all cases: functional
COLO 205 = assay: Cytotoxicity against human COLO205 cells assessed as cell growth level at 1 uM after 48 hrs by sulforhodamine B assay
NCI-H322M [1] = assay: Cytotoxicity against human NCI-H322M cells assessed as cell growth level at 10 uM after 48 hrs by sulforhodamine B assay
T47D = assay: Cytotoxicity against human T47D cells assessed as cell growth level at 100 nM after 48 hrs by sulforhodamine B assay
KM12 = assay: Cytotoxicity against human KM12 cells assessed as cell growth level at 1 uM after 48 hrs by sulforhodamine B assay
MCF7 [2] = assay: Cytotoxicity against human MCF7 cells assessed as cell growth level at 10 nM after 48 hrs by sulforhodamine B assay
SK-OV-3 = assay: Cytotoxicity against human SKOV3 cells after 48 hrs by sulforhodamine B assay; details: SK-OV-3, 48 h
MCF7 [3] = assay: Cytotoxicity against human MCF7 cells assessed as cell growth level at 100 uM after 48 hrs by sulforhodamine B assay
BT-549 [4] = assay: Cytotoxicity against human BT549 cells assessed as cell growth level at 100 nM after 48 hrs by sulforhodamine B assay
U-251 = assay: Cytotoxicity against human U251 cells assessed as cell growth level at 10 uM after 48 hrs by sulforhodamine B assay
HOP-62 [5] = assay: Cytotoxicity against human HOP62 cells assessed as cell growth level at 10 nM after 48 hrs by sulforhodamine B assay
K562 [6] = assay: Cytotoxicity against human K562 cells assessed as cell growth level at 10 uM after 48 hrs by sulforhodamine B assay
NCI-H322M [7] = assay: Cytotoxicity against human NCI-H322M cells assessed as cell growth level at 100 nM after 48 hrs by sulforhodamine B assay
ACHN = assay: Cytotoxicity against human ACHN cells after 48 hrs by sulforhodamine B assay
A549 = assay: Cytotoxicity against human A549/ATCC cells assessed as cell growth level at 10 nM after 48 hrs by sulforhodamine B assay
Malme-3M = assay: Cytotoxicity against human MALME-3M cells assessed as cell growth level at 10 nM after 48 hrs by sulforhodamine B assay
OVCAR-8 = assay: Cytotoxicity against human OVCAR8 cells assessed as cell growth level at 100 uM after 48 hrs by sulforhodamine B assay
HCC 2998 = assay: Cytotoxicity against human HCC2998 cells after 48 hrs by sulforhodamine B assay; details: HCC 2998, 48 h
HL-60(TB) [8] = assay: Cytotoxicity against human HL-60(TB) cells after 48 hrs by sulforhodamine B assay; details: HL-60, 48 h
SK-MEL-28 [9] = assay: Cytotoxicity against human SK-MEL-28 cells assessed as cell growth level at 100 nM after 48 hrs by sulforhodamine B assay
SK-MEL-28 [10] = assay: Cytotoxicity against human SK-MEL-28 cells assessed as cell growth level at 10 uM after 48 hrs by sulforhodamine B assay
SK-MEL-5 [11] = assay: Cytotoxicity against human SK-MEL-5 cells after 48 hrs by sulforhodamine B assay; details: SK-MEL-5, 48 h
BT-549 [12] = assay: Cytotoxicity against human BT549 cells assessed as cell growth level at 100 uM after 48 hrs by sulforhodamine B assay
IGROV-1 = assay: Cytotoxicity against human IGROV1 cells assessed as cell growth level at 1 uM after 48 hrs by sulforhodamine B assay
UO-31 = assay: Cytotoxicity against human UO31 cells assessed as cell growth level at 100 uM after 48 hrs by sulforhodamine B assay
SK-MEL-5 [13] = assay: Cytotoxicity against human SK-MEL-5 cells assessed as cell growth level at 10 uM after 48 hrs by sulforhodamine B assay
[14] = Cytotoxicity against human NCI-ADR-RES cells assessed as cell growth level at 10 uM after 48 hrs by sulforhodamine B assay
OVCAR-4 = assay: Cytotoxicity against human OVCAR4 cells after 48 hrs by sulforhodamine B assay; details: OVCAR-4, 48 h
UACC-62 = assay: Cytotoxicity against human UACC62 cells assessed as cell growth level at 10 uM after 48 hrs by sulforhodamine B assay
HL-60(TB) [15] = assay: Cytotoxicity against human HL-60(TB) cells assessed as cell growth level at 100 nM after 48 hrs by sulforhodamine B assay
BT-549 [16] = assay: Cytotoxicity against human BT549 cells after 48 hrs by sulforhodamine B assay; details: BT-549, 48 h
RPMI-8226 = assay: Cytotoxicity against human RPMI8226 cells assessed as cell growth level at 100 uM after 48 hrs by sulforhodamine B assay
HOP-62 [17] = assay: Cytotoxicity against human HOP62 cells assessed as cell growth level at 1 uM after 48 hrs by sulforhodamine B assay
K562 [18] = assay: Cytotoxicity against human K562 cells assessed as cell growth level at 10 nM after 48 hrs by sulforhodamine B assay
786-0 = assay: Cytotoxicity against human 786-0 cells after 48 hrs by sulforhodamine B assay; details: 786-0, 48 h
BT-549 [19] = assay: Cytotoxicity against human BT549 cells assessed as cell growth level at 10 nM after 48 hrs by sulforhodamine B assay
[20] = read-out: LC50 (the source's name)
[21] = read-out: pLC50 (the source's name) (converted)

In the case of `O=c1oc2ccccc2cc1-c1csc(N/N=C/c2c[nH]c3ccccc23)n1`, the Activity (COLO 205) is reported as 109%, the Activity (NCI-H322M [1]) is reported as 15.29% and the Activity (T47D) is reported as 96%. For the same compound, the Activity (KM12) was 95%, the Activity (MCF7 [2]) was 98% and the GI50 (SK-OV-3; read-out: GI50) was 3.95 µM. It also gave a CC50 (SK-OV-3; [20]) of over 100 µM, a TGI (SK-OV-3; read-out: TGI) of over 100 µM and a GI50 (SK-OV-3; read-out: pGI50 (converted)) of 3.98 µM. The CC50 (SK-OV-3; [21]) was over 100 µM, the TGI (SK-OV-3; read-out: pTGI (converted)) was 100 µM and the Activity (MCF7 [3]) was -60%. It also gave an Activity (BT-549 [4]) of 88%, an Activity (U-251) of -6.38% and an Activity (HOP-62 [5]) of 105%. It also gave an Activity (K562 [6]) of 0.99%, an Activity (NCI-H322M [7]) of 102% and a GI50 (ACHN; read-out: GI50) of 1.31 µM. For the same compound, the CC50 (ACHN; [20]) was 70.8 µM, the TGI (ACHN; read-out: TGI) was 4.36 µM and the GI50 (ACHN; read-out: pGI50 (converted)) was 1.32 µM. The CC50 (ACHN; [21]) was 70.8 µM, the TGI (ACHN; read-out: pTGI (converted)) was 4.37 µM and the Activity (A549) was 94%. The Activity (Malme-3M) was 100%, the Activity (OVCAR-8) was -8% and the GI50 (HCC 2998; read-out: GI50) was 2.82 µM. It also gave a CC50 (HCC 2998; [20]) of over 100 µM, a TGI (HCC 2998; read-out: TGI) of 6.8 µM and a GI50 (HCC 2998; read-out: pGI50 (converted)) of 2.82 µM. For the same compound, the CC50 (HCC 2998; [21]) was over 100 µM, the TGI (HCC 2998; read-out: pTGI (converted)) was 6.76 µM and the GI50 (HL-60(TB) [8]; read-out: GI50) was 0.45 µM. For the same compound, the CC50 (HL-60(TB) [8]; [20]) was over 100 µM, the TGI (HL-60(TB) [8]; read-out: TGI) was 7.64 µM and the GI50 (HL-60(TB) [8]; read-out: pGI50 (converted)) was 0.457 µM. For the same compound, the CC50 (HL-60(TB) [8]; [21]) was over 100 µM, the TGI (HL-60(TB) [8]; read-out: pTGI (converted)) was 7.59 µM and the Activity (SK-MEL-28 [9]) was 91%. For the same compound, the Activity (SK-MEL-28 [10]) was 54.83%, the GI50 (SK-MEL-5 [11]; read-out: GI50) was 2.09 µM and the CC50 (SK-MEL-5 [11]; [20]) was 15.2 µM. For the same compound, the TGI (SK-MEL-5 [11]; read-out: TGI) was 4.97 µM, the GI50 (SK-MEL-5 [11]; read-out: pGI50 (converted)) was 2.09 µM and the CC50 (SK-MEL-5 [11]; [21]) was 15.1 µM. For the same compound, the TGI (SK-MEL-5 [11]; read-out: pTGI (converted)) was 5.01 µM, the Activity (BT-549 [12]) was -88% and the Activity (IGROV-1) was 58%. For the same compound, the Activity (UO-31) was -52%, the Activity (SK-MEL-5 [13]) was 69.78% and the Activity [14] was 24.9%. It also gave a GI50 (OVCAR-4; read-out: GI50) of 1.37 µM, a CC50 (OVCAR-4; [20]) of over 100 µM and a TGI (OVCAR-4; read-out: TGI) of 5.87 µM. It also gave a GI50 (OVCAR-4; read-out: pGI50 (converted)) of 1.38 µM, a CC50 (OVCAR-4; [21]) of over 100 µM and a TGI (OVCAR-4; read-out: pTGI (converted)) of 5.89 µM. For the same compound, the Activity (UACC-62) was 42.96%, the Activity (HL-60(TB) [15]) was 97% and the GI50 (BT-549 [16]; read-out: GI50) was 1.13 µM. The CC50 (BT-549 [16]; [20]) was 5.22 µM, the TGI (BT-549 [16]; read-out: TGI) was 2.43 µM and the GI50 (BT-549 [16]; read-out: pGI50 (converted)) was 1.12 µM. It also gave a CC50 (BT-549 [16]; [21]) of 5.25 µM, a TGI (BT-549 [16]; read-out: pTGI (converted)) of 2.45 µM and an Activity (RPMI-8226) of -41%. The Activity (HOP-62 [17]) was 103%, the Activity (K562 [18]) was 95% and the GI50 (786-0; read-out: GI50) was 1.35 µM. For the same compound, the CC50 (786-0; [20]) was over 100 µM, the TGI (786-0; read-out: TGI) was 4.09 µM and the GI50 (786-0; read-out: pGI50 (converted)) was 1.35 µM. It also gave a CC50 (786-0; [21]) of over 100 µM, a TGI (786-0; read-out: pTGI (converted)) of 4.07 µM and an Activity (BT-549 [19]) of 95%.
